{"source": "patent US5972894A", "about": "“Peptides having potassium channel opener activity” (Cytran, Inc., priority 1997, dated 1999)", "system": "Smooth Muscle Cells of Rat Portal Vein", "assay": "Spontaneous contractile activity of rat portal vein smooth muscle specimens", "format": "cell-based", "conditions": "10^-6 g/ml", "method": "Rat portal vein SMS samples were surgically isolated from random bred rats weighing 200-250 g. The suitability of each isolated rat portal vein SMS was established by measuring the spontaneous contraction response and its contractile response of the specimen to potassium chloride (KCl) as follows. Each isolated SMS was placed into an organ bath with standard Krebs-Henseleit (KH) solution at 35° C. Then, 0.5 ml of physiological saline were added into the organ bath. In this procedure, one end of the smooth muscle strip was fixed, while the other end of the muscle strip was connected with a probe which transmitted contraction-induced signals to an analog-to-digital converter. The spontaneous contraction curve for each SMS was recorded by taking repeated measurements over a 1-minute period. Next, 0.5 ml of a 600 mM solution of KCl in physiological saline was added to the SMS sample/organ bath to achieve a final concentration of 60 mM KCl. KCl induces contraction of rat portal vein tissue at a fmal tissue concentration of about 60 mM.\nThe KCl-induced contraction curve for each specimen sample was then recorded over the next 5-minute period. […] During this stabilization period, the spontaneous contraction curve for each SMS was verified by monitoring the data obtained from analog-to-digital converter.\nTo each SMS in the organ bath prepared according to Steps 2 and 3 above, 0.5 ml of physiological saline was added, and the spontaneous contraction curve was recorded for 1 minute. Each spontaneous contraction curve served as baseline (control) curve for comparison with the respective spontaneous contraction of each SMS in the presence of a test substance or reference substance.\nSpontaneous contraction curve values for each SMS were recorded by making repetitive measurements of the spontaneous contractile activity of each sample at 2, 5, 10, and 15 minutes after the addition of the test or reference substance to each SMS/organ bath. Next, 0.5 ml of a solution of 600 mM solution of KCl in […] in the organ bath until a final concentration of 60 mM KCl was achieved. The contractile activity of each SMS was then measured for 5 minutes.", "note": "Residues, ends and D or L forms follow the SMILES beside them."}
{"smiles": "NCC(=O)N[C@@H](CCC(=O)O)C(=O)O", "note": "[GE, L-Glycyl-L-Glutamic acid] (H-Gly-Glu-OH)", "values": [{"measurement": "effect on spontaneous contractions (amplitude and area under curve)", "result": "appreciably reduced the amplitude of and area under the contraction curve"}, {"measurement": "Amplitude of spontaneous contraction (% of Control)", "setting": "2 min after application", "result": 114.93, "unit": "%"}, {"measurement": "Area Under Curve of spontaneous contraction (% of Control)", "setting": "2 min after application", "result": 134.77, "unit": "%"}, {"measurement": "Amplitude of spontaneous contraction (% of Control)", "setting": "5 min after application", "result": 75.56, "unit": "%"}, {"measurement": "Area Under Curve of spontaneous contraction (% of Control)", "setting": "5 min after application", "result": 87.51, "unit": "%"}, {"measurement": "Amplitude of spontaneous contraction (% of Control)", "setting": "10 min after application", "result": 60.37, "unit": "%"}, {"measurement": "Area Under Curve of spontaneous contraction (% of Control)", "setting": "10 min after application", "result": 70.07, "unit": "%"}, {"measurement": "Amplitude of spontaneous contraction (% of Control)", "setting": "15 min after application", "result": 63.94, "unit": "%"}, {"measurement": "Area Under Curve of spontaneous contraction (% of Control)", "setting": "15 min after application", "result": 75.08, "unit": "%"}]}
